Read-outs that look alike come from different tables or passages of the source. Where a SMILES comes first, the peptide text is derived from it.
Legend:
[1] = simulated gi fluid, pH 6.8
[2] = target: T1, human oxytocin receptor (OTR) (Homo sapiens, UniProt P30559); assay: NIMH PDSP FLIPR-TETRA Ca2+-mobilization assay; format: cell-based; conditions: agonist, Ca2+ assay, NIMH PDSP, n ≥ 2; read-out: EC50 ± SEM OTR
T1 construct: NIMH PDSP (data provider)
T1 sequence (P30559 1-389): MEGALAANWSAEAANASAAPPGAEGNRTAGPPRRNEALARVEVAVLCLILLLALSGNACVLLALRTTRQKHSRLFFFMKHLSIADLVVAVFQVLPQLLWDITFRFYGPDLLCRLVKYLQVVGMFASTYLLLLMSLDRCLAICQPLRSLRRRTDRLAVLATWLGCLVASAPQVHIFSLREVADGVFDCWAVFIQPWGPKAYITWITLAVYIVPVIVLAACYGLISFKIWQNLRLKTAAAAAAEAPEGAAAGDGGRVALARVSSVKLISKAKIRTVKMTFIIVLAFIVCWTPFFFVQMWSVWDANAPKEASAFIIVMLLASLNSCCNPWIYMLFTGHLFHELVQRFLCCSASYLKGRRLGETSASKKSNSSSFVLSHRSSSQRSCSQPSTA

[3] = simulated gi fluid, pH 1.2

Compound	t1/2 SIF ([1]; pig)	EC50 [2]	t1/2 SIF [1]	t1/2 SGF [3]
[H][C@@]12CCCN1C(=O)[C@]1([H])CCCN1C(=O)[C@H]([C@@H](C)CC)NC(=O)[C@H](CO)NC(=O)[C@H](CCCCN)NC(=O)[C@H]([C@@H](C)O)NC(=O)[C@@H]1CSSC[C@H](NC(=O)[C@H]([C@@H](C)CC)NC2=O)C(=O)N[C@@H](Cc2ccc(O)cc2)C(=O)N[C@@H]([C@@H](C)CC)C(=O)N[C@@H](CCC(N)=O)C(=O)N[C@@H](CC(N)=O)C(=O)N1 [SFTI-1(OT^[2-5])] (HELM PEPTIDE1{C.T.K.S.I.P.P.I.C.Y.I.Q.N}$PEPTIDE1,PEPTIDE1,1:R3-9:R3|PEPTIDE1,PEPTIDE1,1:R1-13:R2$$$V2.0)	31 ± 3 min	> 30 µM	–	–
[H][C@@]12CCCN1C(=O)[C@H](CC)NC(=O)[C@H](CC(N)=O)NC(=O)[C@H](CCC(N)=O)NC(=O)[C@H]([C@@H](C)CC)NC(=O)[C@H](Cc1ccc(O)cc1)NC(=O)[C@@H]1CSSC[C@H](NC(=O)CNC(=O)[C@H](CC(C)C)NC2=O)C(=O)N[C@@H]([C@@H](C)O)C(=O)N[C@@H](CCCCN)C(=O)N[C@@H](CO)C(=O)N[C@@H]([C@@H](C)CC)C(=O)N2CCC[C@@]2([H])C(=O)N2CCC[C@@]2([H])C(=O)N[C@@H]([C@@H](C)CC)C(=O)N1 [SFTI-1(OT^[2-9])] (HELM PEPTIDE1{[Abu].P.L.G.C.T.K.S.I.P.P.I.C.Y.I.Q.N}$PEPTIDE1,PEPTIDE1,5:R3-13:R3|PEPTIDE1,PEPTIDE1,1:R1-17:R2$$$V2.0)	3 ± 1 min	> 30 µM	–	–
[H][C@@]12CCCN1C(=O)[C@]1([H])CCCN1C(=O)[C@H]([C@@H](C)CC)NC(=O)[C@H](CO)NC(=O)[C@H](CCCCN)NC(=O)[C@H]([C@@H](C)O)NC(=O)[C@@H]1CSSC[C@H](NC(=O)[C@H]([C@@H](C)CC)NC2=O)C(=O)N[C@@H](Cc2ccc(O)cc2)C(=O)N[C@@H](Cc2ccccc2)C(=O)N[C@@H](CCC(N)=O)C(=O)N[C@@H](CC(N)=O)C(=O)N1 [SFTI-1(VP^[2-5])] (HELM PEPTIDE1{C.T.K.S.I.P.P.I.C.Y.F.Q.N}$PEPTIDE1,PEPTIDE1,1:R3-9:R3|PEPTIDE1,PEPTIDE1,1:R1-13:R2$$$V2.0)	12 ± 1 min	> 30 µM	–	–
[H][C@@]12CCCN1C(=O)[C@H](CC)NC(=O)[C@H](CC(N)=O)NC(=O)[C@H](CCC(N)=O)NC(=O)[C@H](Cc1ccccc1)NC(=O)[C@H](Cc1ccc(O)cc1)NC(=O)[C@@H]1CSSC[C@H](NC(=O)CNC(=O)[C@H](CCCNC(=N)N)NC2=O)C(=O)N[C@@H]([C@@H](C)O)C(=O)N[C@@H](CCCCN)C(=O)N[C@@H](CO)C(=O)N[C@@H]([C@@H](C)CC)C(=O)N2CCC[C@@]2([H])C(=O)N2CCC[C@@]2([H])C(=O)N[C@@H]([C@@H](C)CC)C(=O)N1 [SFTI-1(VP^[2-9])] (HELM PEPTIDE1{[Abu].P.R.G.C.T.K.S.I.P.P.I.C.Y.F.Q.N}$PEPTIDE1,PEPTIDE1,5:R3-13:R3|PEPTIDE1,PEPTIDE1,1:R1-17:R2$$$V2.0)	–	> 30 µM	<3 min	–
CC[C@H](C)[C@@H]1NC(=O)[C@H](CCC(=O)O)NC(=O)[C@@H]2CCCN2C(=O)[C@H](Cc2cnc[nH]2)NC(=O)[C@H](CC(=O)O)NC(=O)[C@H](Cc2ccc(O)cc2)NC(=O)[C@H](CC(N)=O)NC(=O)[C@@H]2CSSC[C@H](NC(=O)CN)C(=O)N[C@@H](CSSC[C@@H](C(N)=O)NC1=O)C(=O)N[C@@H](CO)C(=O)N[C@@H](CC(=O)O)C(=O)N1CCC[C@H]1C(=O)N[C@@H](CCCNC(=N)N)C(=O)N2 [Vc1.1, reference compound]	144 ± 12 min	–	–	>1440 min
[H][C@@]12CCCN1C(=O)[C@@H]1CSSC[C@H](NC(=O)CNC(=O)[C@H](CC(C)C)NC(=O)[C@]3([H])CCCN3C(=O)[C@@H]3CSSC[C@H](NC(=O)CNC(=O)[C@H](CC(C)C)NC2=O)C(=O)N[C@@H](Cc2ccc(O)cc2)C(=O)N[C@@H]([C@@H](C)CC)C(=O)N[C@@H](CCC(N)=O)C(=O)N[C@@H](CC(N)=O)C(=O)N3)C(=O)N[C@@H](Cc2ccc(O)cc2)C(=O)N[C@@H]([C@@H](C)CC)C(=O)N[C@@H](CCC(N)=O)C(=O)N[C@@H](CC(N)=O)C(=O)N1 [c(OT)2] (HELM PEPTIDE1{C.P.L.G.C.Y.I.Q.N.C.P.L.G.C.Y.I.Q.N}$PEPTIDE1,PEPTIDE1,1:R3-14:R3|PEPTIDE1,PEPTIDE1,5:R3-10:R3|PEPTIDE1,PEPTIDE1,1:R1-18:R2$$$V2.0)	–	–	<3 min	–
[H][C@@]12CCCN1C(=O)[C@@H]1CSSC[C@H](NC(=O)CNC(=O)[C@H](CC(C)C)NC(=O)[C@]3([H])CCCN3C(=O)[C@@H]3CSSC[C@H](NC(=O)CNC(=O)[C@H](CCCNC(=N)N)NC2=O)C(=O)N[C@@H](Cc2ccc(O)cc2)C(=O)N[C@@H]([C@@H](C)CC)C(=O)N[C@@H](CCC(N)=O)C(=O)N[C@@H](CC(N)=O)C(=O)N3)C(=O)N[C@@H](Cc2ccc(O)cc2)C(=O)N[C@@H](Cc2ccccc2)C(=O)N[C@@H](CCC(N)=O)C(=O)N[C@@H](CC(N)=O)C(=O)N1 [c(OT-VP)] (HELM PEPTIDE1{C.P.L.G.C.Y.F.Q.N.C.P.R.G.C.Y.I.Q.N}$PEPTIDE1,PEPTIDE1,1:R3-14:R3|PEPTIDE1,PEPTIDE1,5:R3-10:R3|PEPTIDE1,PEPTIDE1,1:R1-18:R2$$$V2.0)	–	–	<3 min	–
[H][C@@]12CCCN1C(=O)[C@@H]1CSSC[C@H](NC(=O)CNC(=O)[C@H](CCCNC(=N)N)NC(=O)[C@]3([H])CCCN3C(=O)[C@@H]3CSSC[C@H](NC(=O)CNC(=O)[C@H](CCCNC(=N)N)NC2=O)C(=O)N[C@@H](Cc2ccc(O)cc2)C(=O)N[C@@H](Cc2ccccc2)C(=O)N[C@@H](CCC(N)=O)C(=O)N[C@@H](CC(N)=O)C(=O)N3)C(=O)N[C@@H](Cc2ccc(O)cc2)C(=O)N[C@@H](Cc2ccccc2)C(=O)N[C@@H](CCC(N)=O)C(=O)N[C@@H](CC(N)=O)C(=O)N1 [c(VP)2] (HELM PEPTIDE1{C.P.R.G.C.Y.F.Q.N.C.P.R.G.C.Y.F.Q.N}$PEPTIDE1,PEPTIDE1,1:R3-14:R3|PEPTIDE1,PEPTIDE1,5:R3-10:R3|PEPTIDE1,PEPTIDE1,1:R1-18:R2$$$V2.0)	–	–	<3 min	–
